According to paper PMC2374418, “A prolonged methoxymorpholino doxorubicin (PNU-152243 or MMRDX) infusion schedule in patients with solid tumours: a phase 1 and pharmacokinetic study” (British Journal of Cancer, 2000):

Experiments:
[1] = Pharmacokinetics in plasma and urine, first cycle, non-compartmental analysis
From the text: Nowadays, anthracyclines play an important role in chemothera- peutic treatment of a wide variety of tumour types. The clinical use of anthracyclines is limited by their toxicity profile, especially irreversible, cumulative dose-related cardiotoxicity, and by intrinsic or acquired resistance of tumours cells. Mechanisms of this resistance consist of several pathways, such as overexpression of drug efflux pumps (i.e. P-glycoprotein), decrease in topoiso- merase II enzyme levels, and increase in cellular detoxifying capacity (Kaye and Merry, 1985; Deffie et al, 1989; de Jong et al, 1990; Ford and Hait, 1990; Roninson, 1997). Morpholinyl anthracyclines, such as methoxymorpholino doxorubicin (MMRDX or PNU-152243), were synthesized in search for new anthracyclines with at least partially novel modes of action, including activity on multidrug-resistant (MDR) tumours. MMRDX is a novel doxorubicin derivative in which the nitrogen atom of the daunosamine is enclosed in a methoxymor- pholino ring (Figure 1). […] The working mechanism of morpholinyl anthracyclines appears to be different from other anthracyclines. Morpholinyl anthracyclines inhibit ribosomal gene transcription as well as topoisomerase I-mediated DNA-cleavage (Wassermann et al, 1988, 1990). […] Metabolic conversion of MMRDX by human liver microsomes and NADPH potentiated the cytotoxicity in an ovarian carcinoma cell line (Lau et al, 1994). […] Therefore, we decided to perform a phase I study with MMRDX administered as a 3 h infusion every 4 weeks in order to try to increase the MTD as compared with bolus administration. In addition, we assessed pharmacokinetics of prolonged MMRDX-infusion. A prolonged methoxymorpholino doxorubicin (PNU- 152243 or MMRDX) infusion schedule in patients with solid tumours: a phase 1 and pharmacokinetic study E Fokkema1 , J Verweij2 , AT van Oosterom3 , DRA Uges1 , R Spinelli4 , O Valota4 , EGE de Vries1 and HJM Groen1 1 Department of Pulmonology, Department of Pharmacy, Department of Internal Medicine, University Hospital Groningen, PO Box 30.001, 9700 RB Groningen, The Netherlands; 2 Rotterdam Cancer Institute and University Hospital, Rotterdam, The Netherlands; 3 University Hospital Leuven, Belgium; 4 Pharmacia & Upjohn, Milan, Italy Summary The aim of this phase I study was to assess feasibility, pharmacokinetics and toxicity of methoxymorpholino doxorubicin (MMRDX or PNU-152243) administered as a 3 h intravenous infusion once every 4 weeks. […] The first cohort of patients was treated with 1 mg m-2 of MMRDX. The next cohorts received 1.25 mg m-2 and 1.5 mg m-2 respectively. […] (c) 2000 Cancer Research Campaign Keywords: methoxymorpholino doxorubicin; pharmacokinetics; phase I study 767 Received 6 January 1999 Revised 2 August 1999 Accepted 25 August 1999 Correspondence to: EGE de Vries British Journal of Cancer (2000) 82(4), 767-771 (c) 2000 Cancer Research Campaign DOI: 10.1054/ bjoc.1999.0996, available online at http://www.idealibrary.com on PATIENTS AND METHODS Patients The study was performed between December 1994 and June 1996. Patients with intrinsic anthracycline-resistant tumours were accrued in three different centres in Belgium and The Netherlands.

[2] = system: patients with various intrinsically anthracycline resistant solid tumours; conditions: 1998, cited from earlier work
[3] = design: method as in ref Johnston and Glazer, 1983; Acton et al, 1984; Streeter et al, 1986; conditions: ref Johnston and Glazer, 1983; Acton et al, 1984; Streeter et al, 1986; cited from earlier work

## COc1cccc2c1C(=O)c1c(O)c3c(c(O)c1C2=O)C[C@@](O)(C(=O)CO)C[C@@H]3O[C@H]1C[C@H](N2CCO[C@H](OC)C2)[C@H](O)[C@H](C)O1 [MMRDX, methoxymorpholino doxorubicin]
[1]; 1.0 mg m-2 (n = 3)
  % Dose in urine, median (range): 1.6 (0.53-1.74) %
[1]; 1.25 mg m-2 (n = 6)
  % Dose in urine, median (range): 2.1 (0.35-2.6) %
[1]; 1.25 mg m-2, n = 4
  Cl (plasma clearance), median (range): 649.0 (506.3-812.3) ml min-1 m-2
  Vss, median (range): 2891.5 (1742-3371) l m-2
  Vz, median (range): 3942.5 (1997-4540) l m-2
  t1/2 z (printed 'tA z'), median (range): 60.9 (45.6-88.8) h
[1]; 1.5 mg m-2 (n = 3)
  % Dose in urine, median (range): 2.47 (1.71-2.49) %
[1]; 1.5 mg m-2, n = 2
  Cl (plasma clearance), median (range): 741.2 (659-823.2) ml min-1 m-2
  Vss, median (range): 2693.0 (2585-2801) l m-2
  Vz, median (range): 2908.5 (2574-3243) l m-2
  t1/2 z (printed 'tA z'), median (range): 46.5 (36.1-56.9) h
[1]; 3 h i.v. infusion
  Renal excretion: negligible
[1]; pharmacodynamic analysis, linear regression, first cycle
  Correlation between AUC0-tz or Cmax and nadirs of haemoglobin, platelets, leucocytes and neutrophils: no correlation
[1]; plasma, 1.0 mg m-2 (n = 3)
  AUC 0-tz, median (range): 9.4 (8.3-18.3) ng h ml-1
  Cmax, median (range): 2.8 (1.8-6.2) ng ml-1
[1]; plasma, 1 mg m-2, one patient
  Cmax, one patient with high value: 6.17 ng/mL
[1]; plasma, 1.25 mg m-2 (n = 6)
  AUC 0-tz, median (range): 15.1 (10.1-30.4) ng h ml-1
  Cmax, median (range): 2.3 (1.1-2.7) ng ml-1
[1]; plasma, 1.5 mg m-2 (n = 3)
  AUC 0-tz, median (range): 21.4 (5.7-26.9) ng h ml-1
  Cmax, median (range): 1.4 (1.2-2.1) ng ml-1
[1]; plasma, all dose levels
  Cmax, all other patients: around 2.0 ng ml-1
[1]; similar for all dose levels, seven patients
  AUC0-infinity from non-compartmental analysis: around 30 ng h ml-1
[2]; 1.5 mg m-2 bolus every 4 weeks, ref Bakker et al
  Grade IV neutropenia: 9 % of administered cycles
[2]; NSCLC, ref Bakker et al
  Tumour responses: one partial response in one out of 17 NSCLC
[2]; bolus, ref Bakker et al
  Plasma clearance: 620 ml min-1 m-2
  t1/2 of the elimination phase: 49 h
[2]; phase II study, ref Vasey et al, 1995, Bakker et al
  Patients taken off study due to a decrease in LVEF: two patients
[3]
  Lipophilicity: high lipophilicity
